Data taken from patent US7192746B2, “α-Isomaltosyltransferase, process for producing the same and use thereof” (Kabushiki Kaisha Hayashibara Seibutsu Kagaku Kenkyujo, priority 2000, dated 2007).

Legend:
Format in all cases: biochemical
[1] = test system: α-isomaltosyl-transferring enzyme from Bacillus globisporus C9; assay: Formation of cyclotetrasaccharide from components A, B and C; conditions: Enzyme of Strain C9; for Saccharide composition, remaining Substrate: 1% (w/v) substrate, pH 6.0, 1 unit/g substrate; for Saccharide composition, remaining Substrate / Saccharide composition, Cyclotetrasaccharide / Saccharide composition, Glucose / Saccharide composition, Others: 35° C., 8 hours
Description: (§1) Using a purified α-isomaltosyl-transferring enzyme, the formation of cyclotetrasaccharide from the above-identified components A, B and C was examined as follows: One percent (w/v) of an aqueous solution (pH 6.0) of the component A (3-O-α-isomaltosylpanose represented by Chemical Formula 1), the component B (4-O-α-isomaltosylpanose represented by Chemical Formula 2), or the component C (1-O-α-isomaltosyl-β-panoside represented by Chemical Formula 3) was prepared into a substrate solution. To each of the resulting solutions was added one unit/g substrate of a purified specimen of α-isomaltosyl-transferring enzyme from Bacillus globisporus C9 obtained by the method in Experiment 4, or Bacillus globisporus C11 obtained by the method in Experiment 7, followed by enzymatic reaction at 35° C. for eight hours. Thereafter, the resulting mixtures were analyzed on HPLC for saccharide composition (%).

[2] = test system: α-isomaltosyl-transferring enzyme from Bacillus globisporus C11; assay: as above; conditions: Enzyme of Strain C11; for Saccharide composition, remaining Substrate: 1% (w/v) substrate, pH 6.0, 1 unit/g substrate; for Saccharide composition, remaining Substrate / Saccharide composition, Cyclotetrasaccharide / Saccharide composition, Glucose / Saccharide composition, Others: 35° C., 8 hours
Description: as §1

[3] = test system: α-isomaltosyl-transferring enzyme from Bacillus globisporus N75; assay: Action on saccharides (substrates, TLC); design: key: −: there was found no substrate change before and after the enzymatic reaction; +: there were found both the reduction of substrate and the formation of cyclotetrasaccharide after the enzymatic reaction; conditions: 2 units/g substrate, 2% (w/v) substrate, 30° C., pH 6.0, 24 hours
Method in brief: (§2)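 Action was judged by comparing TLC profiles of each mixture before and after a 24-hour reaction at 30° C. and pH 6.0. Each saccharide (2% w/v) received 2 units/g substrate of purified enzyme; plates were developed in n-butanol, pyridine and water (6:4:1).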

[4] = test system: α-isomaltosyl-transferring enzyme from Arthrobacter globiformis A19; assay: Action on saccharides (substrates, TLC); design: key: −: there was found no substrate change before and after the enzymatic reaction; +: there were found both the reduction of substrate and the formation of cyclotetrasaccharide after the enzymatic reaction; conditions: partially purified enzyme, 2 units/g substrate, 2% (w/v) substrate, 30° C., pH 6.0, 24 hours
Method in brief: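 Each candidate saccharide, from malto- and isomalto-oligosaccharides to cyclodextrins, starch, pullulan and dextran, was prepared at 2% (w/v). Two units/g substrate of enzyme were added, then the mixture was held at pH 6.0, 30° C., 24 hours. Samples were then analysed by silica gel TLC.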

[5] = test system: α-isomaltosyl-transferring enzyme from Arthrobacter ramosus S1; assay: Action on saccharides (substrates, TLC); design: key: −: there was found no substrate change before and after the enzymatic reaction; +: there were found both the reduction of substrate and the formation of cyclotetrasaccharide after the enzymatic reaction; conditions: 2 units/g substrate, 2% (w/v) substrate, 30° C., pH 6.0, 24 hours
Method in brief: as §2

[6] = test system: α-isomaltosyl-transferring enzyme from Bacillus globisporus C9; assay: Action on saccharides (substrates, TLC); design: key: −: there was found no substrate change before and after the enzymatic reaction; +: there were found both the reduction of substrate and the formation of cyclotetrasaccharide after the enzymatic reaction; conditions: 2 units/g substrate, 2% (w/v) substrate, 30° C., pH 6.0, 24 hours
Method in brief: as §2

[7] = test system: α-isomaltosyl-transferring enzyme from Bacillus globisporus C11; assay: Action on saccharides (substrates, TLC); design: key: −: there was found no substrate change before and after the enzymatic reaction; +: there were found both the reduction of substrate and the formation of cyclotetrasaccharide after the enzymatic reaction; conditions: 2 units/g substrate, 2% (w/v) substrate, 30° C., pH 6.0, 24 hours
Method in brief: as §2

[8] = test system: α-isomaltosyl-transferring enzyme from Bacillus globisporus C9; assay: Formation of reducing power from high molecular glucans; conditions: Enzyme of Strain C9
Description: (§3) In the above experiment, no detectable amount of a lower molecular weight saccharide such as cyclotetrasaccharide detectable on TLC was formed from soluble starch, pullulan and dextran as high molecular glucans. The following test was carried out to confirm that the α-isomaltosyl-transferring enzyme of the present invention neither increase the reducing power of the above high molecular glucans nor hydrolyze them. To a solution of soluble starch, pullulan or dextran was added 12 units/g substrate of a purified specimen of α-isomaltosyl-transferring enzyme from either Bacillus globisporus C9 obtained by the method in Experiment 4, Bacillus globisporus C11 obtained by the method in Experiment 7, Bacillus globisporus N75 obtained by the method in Experiment 11, or Arthrobacter ramosus S1 obtained by the method in Experiment 15. […] The reducing saccharide contents and the total sugar contents in the resulting reaction mixtures after the enzymatic reactions were respectively quantified by the Somogyi-Nelson's method and the anthrone-sulfuric acid reaction method. The percentage of forming reducing power was calculated by the following equation, and the results are in Table 13:
(§4) [formula] [formula] AR: Reducing sugar content after enzymatic reaction. AT: Total sugar content after enzymatic reaction. BR: Reducing sugar content before enzymatic reaction. BT: Total sugar content before enzymatic reaction.

[9] = test system: α-isomaltosyl-transferring enzyme from Bacillus globisporus C11; assay: as above; conditions: Enzyme of Strain C11
Description: as §3, §4

[10] = test system: α-isomaltosyl-transferring enzyme from Bacillus globisporus N75; assay: as above; conditions: Enzyme of Strain N75
Description: (§5) In the above experiment, no detectable amount of a lower molecular weight saccharide such as cyclotetrasaccharide detectable on TLC was formed from soluble starch, pullulan and dextran as high molecular glucans. The following test was carried out to confirm that the α-isomaltosyl-transferring enzyme of the present invention neither increase the reducing power of the above high molecular glucans nor hydrolyze them. To a solution of soluble starch, pullulan or dextran was added 12 units/g substrate of a purified specimen of α-isomaltosyl-transferring enzyme from either Bacillus globisporus C9 obtained by the method in Experiment 4, Bacillus globisporus C11 obtained by the method in Experiment 7, Bacillus globisporus N75 obtained by the method in Experiment 11, or Arthrobacter ramosus S1 obtained by the method in Experiment 15. The resulting each solution was adjusted to give a substrate concentration of one percent (w/v) and incubated at 35° C. and pH 6.0 for four hours. The reducing saccharide contents and the total sugar contents in the resulting reaction mixtures after the enzymatic reactions were respectively quantified by the Somogyi-Nelson's method and the anthrone-sulfuric acid reaction method. The percentage of forming reducing power was calculated by the following equation, and the results are in Table 13:
as §4

[11] = test system: α-isomaltosyl-transferring enzyme from Arthrobacter ramosus S1; assay: as above; conditions: printed Enzyme of Strain N75 a second time
Description: as §5, §4

[12] = 0 hr, 12 units/g substrate, 1% (w/v), 35° C., pH 6.0

OC[C@H]1O[C@H](OC[C@H]2O[C@H](O[C@H]3[C@H](O)[C@@H](O)[C@@H](OC[C@H]4O[C@H](O[C@H]5[C@H](O)[C@@H](O)C(O)O[C@@H]5CO)[C@H](O)[C@@H](O)[C@@H]4O)O[C@@H]3CO)[C@H](O)[C@@H](O)[C@@H]2O)[C@H](O)[C@@H](O)[C@@H]1O (stereo partly drawn) [Component B, 4-O-α-isomaltosylpanose]
Saccharide composition, remaining Substrate [1]: 77.1% | Saccharide composition, Cyclotetrasaccharide [1]: 5.1% | Saccharide composition, Glucose [1]: 0.7% | Saccharide composition, Others [1]: 17.1% | Saccharide composition, remaining Substrate [2]: 77.0% | Saccharide composition, Cyclotetrasaccharide [2]: 5.0% | Saccharide composition, Glucose [2]: 0.6% | Saccharide composition, Others [2]: 17.4%

OC[C@H]1O[C@H](OC[C@H]2O[C@H](O[C@@H]3O[C@H](CO)[C@@H](O[C@H]4O[C@H](CO[C@H]5O[C@H](CO)[C@@H](O)[C@H](O)[C@H]5O)[C@@H](O)[C@H](O)[C@H]4O)[C@H](O)[C@H]3O)[C@H](O)[C@@H](O)[C@@H]2O)[C@H](O)[C@@H](O)[C@@H]1O [Component C, 1-O-α-isomaltosyl-β-panoside]
Saccharide composition, remaining Substrate [1]: 55.8% | Saccharide composition, Cyclotetrasaccharide [1]: 6.0% | Saccharide composition, Glucose [1]: 0.2% | Saccharide composition, Others [1]: 38.0% | Saccharide composition, remaining Substrate [2]: 56.0% | Saccharide composition, Cyclotetrasaccharide [2]: 5.9% | Saccharide composition, Glucose [2]: 0.2% | Saccharide composition, Others [2]: 37.9%

OC[C@H]1O[C@H](OC[C@H]2O[C@H](O[C@@H]3[C@@H](O)[C@@H](OC[C@H]4O[C@H](O[C@H]5[C@H](O)[C@@H](O)C(O)O[C@@H]5CO)[C@H](O)[C@@H](O)[C@@H]4O)O[C@H](CO)[C@H]3O)[C@H](O)[C@@H](O)[C@@H]2O)[C@H](O)[C@@H](O)[C@@H]1O (stereo partly drawn) [Component A, 3-O-α-isomaltosylpanose]
Saccharide composition, remaining Substrate [1]: 9.3% | Saccharide composition, Cyclotetrasaccharide [1]: 67.6% | Saccharide composition, Glucose [1]: 17.2% | Saccharide composition, Others [1]: 5.9% | Molar ratio of the formed glucose and cyclotetrasaccharide: cyclotetrasaccharide ([1]; numeral in parenthesis): (1.09) | Molar ratio of the formed glucose and cyclotetrasaccharide: glucose ([1]; numeral in parenthesis): (1.00) | Saccharide composition, remaining Substrate [2]: 9.0% | Saccharide composition, Cyclotetrasaccharide [2]: 67.4% | Saccharide composition, Glucose [2]: 17.4% | Saccharide composition, Others [2]: 6.2% | Molar ratio of the formed glucose and cyclotetrasaccharide: cyclotetrasaccharide ([2]; numeral in parenthesis): (1.08) | Molar ratio of the formed glucose and cyclotetrasaccharide: glucose ([2]; numeral in parenthesis): (1.00)

soluble starch
Enzymatic action for forming cyclotetrasaccharide, Enzyme of Strain N75 [3]: − | Enzymatic action for forming cyclotetrasaccharide, Enzyme of Strain A19 [4]: − | Enzymatic action for forming cyclotetrasaccharide, Enzyme of Strain S1 [5]: − | Enzymatic action for forming cyclotetrasaccharide, Enzyme of Strain C9 [6]: − | Enzymatic action for forming cyclotetrasaccharide, Enzyme of Strain C11 [7]: − | Percentage of forming reducing power [8, 12]: 0.0% | Percentage of forming reducing power ([8]; 1 hr): 0.0% | Percentage of forming reducing power ([8]; 2 hr): 0.0% | Percentage of forming reducing power ([8]; 3 hr): 0.0% | Percentage of forming reducing power ([8]; 4 hr): 0.0% | Percentage of forming reducing power [9, 12]: 0.0% | Percentage of forming reducing power ([9]; 1 hr): 0.1% | Percentage of forming reducing power ([9]; 2 hr): 0.0% | Percentage of forming reducing power ([9]; 3 hr): 0.0% | Percentage of forming reducing power ([9]; 4 hr): 0.0% | Percentage of forming reducing power [10, 12]: 0.0% | Percentage of forming reducing power ([10]; 1 hr): 0.0% | Percentage of forming reducing power ([10]; 2 hr): 0.0% | Percentage of forming reducing power ([10]; 3 hr): 0.0% | Percentage of forming reducing power ([10]; 4 hr): 0.0% | Percentage of forming reducing power [11, 12]: 0.0% | Percentage of forming reducing power ([11]; 1 hr): 0.0% | Percentage of forming reducing power ([11]; 2 hr): 0.0% | Percentage of forming reducing power ([11]; 3 hr): 0.0% | Percentage of forming reducing power ([11]; 4 hr): 0.0%
